Assays:
[1] = biological target: Rho-associated protein kinase 2 (Homo sapiens) (UniProt O75116); test: Inhibition of ROCK2 (unknown origin) at 1 uM by mobility shift microfluidics platform based assay relative to control
[2] = biological target: TRAF2 and NCK-interacting protein kinase (Homo sapiens) (UniProt Q9UKE5); test: Inhibition of TNIK (unknown origin) at 1 uM by mobility shift microfluidics platform based assay relative to control
[3] = biological target: Serine/threonine-protein kinase 16 (Homo sapiens) (UniProt O75716); test: Inhibition of STK16 (unknown origin) at 1 uM by mobility shift microfluidics platform based assay relative to control
Chain of Serine/threonine-protein kinase 16 (Homo sapiens) (O75716 whole entry): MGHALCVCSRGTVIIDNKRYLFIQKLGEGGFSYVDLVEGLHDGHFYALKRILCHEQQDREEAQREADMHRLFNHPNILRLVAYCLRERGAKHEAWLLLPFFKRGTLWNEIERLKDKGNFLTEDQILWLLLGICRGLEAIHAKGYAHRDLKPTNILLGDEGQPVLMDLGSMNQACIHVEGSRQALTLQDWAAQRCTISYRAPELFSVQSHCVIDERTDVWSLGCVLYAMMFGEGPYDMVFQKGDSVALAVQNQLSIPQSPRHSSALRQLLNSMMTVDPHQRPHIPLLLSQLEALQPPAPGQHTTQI

[4] = biological target: Dual specificity tyrosine-phosphorylation-regulated kinase 3 (Homo sapiens) (UniProt O43781); test: Inhibition of DYRK3 (unknown origin) at 1 uM by mobility shift microfluidics platform based assay relative to control
[5] = biological target: Calcium/calmodulin-dependent protein kinase type 1 (Homo sapiens) (UniProt Q14012); test: Inhibition of CAMK1A (unknown origin) at 1 uM by mobility shift microfluidics platform based assay relative to control
[6] = biological target: Serine/threonine-protein kinase TAO2 (Homo sapiens) (UniProt Q9UL54); test: Inhibition of TAOK2 (unknown origin) at 1 uM by mobility shift microfluidics platform based assay relative to control
Chain of Serine/threonine-protein kinase TAO2 (Homo sapiens) (Q9UL54 whole entry): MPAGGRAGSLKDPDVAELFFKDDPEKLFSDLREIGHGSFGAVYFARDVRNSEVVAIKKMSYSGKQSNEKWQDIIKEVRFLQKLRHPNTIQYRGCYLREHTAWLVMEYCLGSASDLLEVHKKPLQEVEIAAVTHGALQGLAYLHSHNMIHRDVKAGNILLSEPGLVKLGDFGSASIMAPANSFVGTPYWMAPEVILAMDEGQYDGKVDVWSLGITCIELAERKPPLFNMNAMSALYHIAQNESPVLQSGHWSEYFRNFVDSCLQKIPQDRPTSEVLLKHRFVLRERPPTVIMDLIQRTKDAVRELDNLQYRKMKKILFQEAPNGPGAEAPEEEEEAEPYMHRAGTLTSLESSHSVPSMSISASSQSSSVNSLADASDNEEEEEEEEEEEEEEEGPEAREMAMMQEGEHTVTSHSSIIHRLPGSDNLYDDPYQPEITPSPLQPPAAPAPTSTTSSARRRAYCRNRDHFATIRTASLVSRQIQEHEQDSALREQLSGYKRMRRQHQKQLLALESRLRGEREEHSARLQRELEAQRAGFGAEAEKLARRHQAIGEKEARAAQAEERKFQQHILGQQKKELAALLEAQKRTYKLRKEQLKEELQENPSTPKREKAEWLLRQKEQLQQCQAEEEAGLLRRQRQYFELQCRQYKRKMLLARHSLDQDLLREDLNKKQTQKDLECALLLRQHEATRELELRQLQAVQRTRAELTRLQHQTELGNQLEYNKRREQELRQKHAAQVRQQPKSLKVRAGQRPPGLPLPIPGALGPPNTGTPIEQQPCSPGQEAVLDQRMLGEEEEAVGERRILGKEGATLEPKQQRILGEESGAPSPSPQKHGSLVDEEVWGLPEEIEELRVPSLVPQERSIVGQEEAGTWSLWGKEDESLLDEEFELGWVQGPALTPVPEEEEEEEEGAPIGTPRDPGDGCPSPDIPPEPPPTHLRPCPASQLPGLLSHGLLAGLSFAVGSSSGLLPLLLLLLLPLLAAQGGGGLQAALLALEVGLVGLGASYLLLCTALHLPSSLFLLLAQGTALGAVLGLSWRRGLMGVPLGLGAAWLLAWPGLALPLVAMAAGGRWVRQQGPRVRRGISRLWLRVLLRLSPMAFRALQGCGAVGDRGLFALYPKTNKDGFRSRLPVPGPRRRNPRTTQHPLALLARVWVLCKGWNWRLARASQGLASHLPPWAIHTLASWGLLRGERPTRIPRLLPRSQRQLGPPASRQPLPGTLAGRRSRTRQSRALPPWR

[7] = biological target: Tyrosine-protein kinase CSK (Homo sapiens) (UniProt P41240); test: Inhibition of CSK (unknown origin) at 1 uM by mobility shift microfluidics platform based assay relative to control
[8] = biological target: Glycogen synthase kinase-3 alpha (Homo sapiens) (UniProt P49840); test: Inhibition of GSK-3-alpha (unknown origin) at 1 uM by mobility shift microfluidics platform based assay relative to control
[9] = biological target: Mitogen-activated protein kinase 12 (Homo sapiens) (UniProt P53778); test: Inhibition of P38-gamma (unknown origin) at 1 uM by mobility shift microfluidics platform based assay relative to control
[10] = biological target: Fibroblast growth factor receptor 4 (Homo sapiens) (UniProt P22455); test: Inhibition of FGFR4 (unknown origin) at 1 uM by mobility shift microfluidics platform based assay relative to control
Chain of Fibroblast growth factor receptor 4 (Homo sapiens) (P22455 22-802 limits assumed): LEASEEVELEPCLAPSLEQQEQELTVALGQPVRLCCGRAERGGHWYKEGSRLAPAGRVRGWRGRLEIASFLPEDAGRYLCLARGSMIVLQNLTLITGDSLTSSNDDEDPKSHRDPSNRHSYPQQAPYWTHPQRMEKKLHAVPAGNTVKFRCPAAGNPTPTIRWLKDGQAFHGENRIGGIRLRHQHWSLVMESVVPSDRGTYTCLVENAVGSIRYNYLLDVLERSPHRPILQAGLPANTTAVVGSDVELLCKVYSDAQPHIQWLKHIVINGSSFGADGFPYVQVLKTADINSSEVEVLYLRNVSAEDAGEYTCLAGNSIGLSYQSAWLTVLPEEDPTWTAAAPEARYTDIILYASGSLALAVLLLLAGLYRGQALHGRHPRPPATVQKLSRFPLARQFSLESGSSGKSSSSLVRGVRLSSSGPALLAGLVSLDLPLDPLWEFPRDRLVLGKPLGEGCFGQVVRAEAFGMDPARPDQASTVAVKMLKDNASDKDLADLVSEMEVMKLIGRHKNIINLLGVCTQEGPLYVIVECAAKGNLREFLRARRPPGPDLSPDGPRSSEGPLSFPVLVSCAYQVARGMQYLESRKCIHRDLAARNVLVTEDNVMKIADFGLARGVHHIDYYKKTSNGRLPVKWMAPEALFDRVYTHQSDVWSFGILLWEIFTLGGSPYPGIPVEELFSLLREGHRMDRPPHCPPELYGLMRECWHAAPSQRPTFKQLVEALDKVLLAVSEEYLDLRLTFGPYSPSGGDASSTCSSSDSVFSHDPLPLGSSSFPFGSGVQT

[11] = biological target: Protein kinase C alpha type (Homo sapiens) (UniProt P17252); test: Inhibition of PKC-alpha (unknown origin) at 1 uM by mobility shift microfluidics platform based assay relative to control
[12] = biological target: Serine/threonine-protein kinase 25 (Homo sapiens) (UniProt O00506); test: Inhibition of STK25 (unknown origin) at 1 uM by mobility shift microfluidics platform based assay relative to control
[13] = biological target: Proto-oncogene tyrosine-protein kinase receptor Ret (Homo sapiens) (UniProt P07949); test: Inhibition of RET (unknown origin) at 1 uM by mobility shift microfluidics platform based assay relative to control
[14] = biological target: Ephrin type-B receptor 1 (Homo sapiens) (UniProt P54762); test: Inhibition of EPH-B1 (unknown origin) at 1 uM by mobility shift microfluidics platform based assay relative to control
[15] = biological target: MAP/microtubule affinity-regulating kinase 3 (Homo sapiens) (UniProt P27448); test: Inhibition of MARK3 (unknown origin) at 1 uM by mobility shift microfluidics platform based assay relative to control
[16] = biological target: Platelet-derived growth factor receptor alpha (Homo sapiens) (UniProt P16234); test: Inhibition of PDGFR-alpha (unknown origin) at 1 uM by mobility shift microfluidics platform based assay relative to control
[17] = biological target: Tyrosine-protein kinase Mer (Homo sapiens) (UniProt Q12866); test: Inhibition of MER (unknown origin) at 1 uM by mobility shift microfluidics platform based assay relative to control
[18] = biological target: Interleukin-1 receptor-associated kinase 4 (Homo sapiens) (UniProt Q9NWZ3); test: Inhibition of IRAK4 (unknown origin) at 1 uM by mobility shift microfluidics platform based assay relative to control
[19] = biological target: Serine/threonine-protein kinase B-raf (Homo sapiens, UniProt P15056, V600E); test: Inhibition of BRAF V600E mutant (unknown origin) after 20 mins by immunoblotting assay
[20] = biological target: cAMP-dependent protein kinase catalytic subunit PRKX (Homo sapiens) (UniProt P51817); test: Inhibition of PRKX (unknown origin) at 1 uM by mobility shift microfluidics platform based assay relative to control
[21] = biological target: Serine/threonine-protein kinase Nek1 (Homo sapiens) (UniProt Q96PY6); test: Inhibition of NEK1 (unknown origin) at 1 uM by mobility shift microfluidics platform based assay relative to control
[22] = biological target: Cyclin-dependent kinase 5/CDK5 activator 1 (Homo sapiens) (UniProt Q00535+Q15078); test: Inhibition of CDK5-p25 (unknown origin) at 1 uM by mobility shift microfluidics platform based assay relative to control; type: protein-complex assay
Chain of Cyclin-dependent kinase 5/CDK5 activator 1 (Homo sapiens) (Q00535 whole entry, canonical isoform): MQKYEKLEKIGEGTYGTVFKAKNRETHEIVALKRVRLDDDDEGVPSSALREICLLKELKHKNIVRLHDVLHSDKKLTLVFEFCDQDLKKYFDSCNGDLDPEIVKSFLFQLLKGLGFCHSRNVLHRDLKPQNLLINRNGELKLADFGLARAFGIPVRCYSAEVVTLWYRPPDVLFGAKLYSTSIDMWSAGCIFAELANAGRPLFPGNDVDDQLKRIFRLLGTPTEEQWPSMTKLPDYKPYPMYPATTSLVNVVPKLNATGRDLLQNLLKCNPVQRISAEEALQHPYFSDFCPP
Chain of Cyclin-dependent kinase 5/CDK5 activator 1 (Homo sapiens) (Q15078 99-307 partner limits assumed): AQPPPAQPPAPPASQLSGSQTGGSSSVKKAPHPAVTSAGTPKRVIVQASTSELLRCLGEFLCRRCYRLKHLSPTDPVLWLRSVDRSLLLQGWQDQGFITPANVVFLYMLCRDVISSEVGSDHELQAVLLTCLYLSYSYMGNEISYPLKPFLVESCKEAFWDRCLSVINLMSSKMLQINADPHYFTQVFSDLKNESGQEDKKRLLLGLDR

[23] = biological target: Casein kinase I isoform gamma-2 (Homo sapiens) (UniProt P78368); test: Inhibition of CK1-gamma2 (unknown origin) at 1 uM by mobility shift microfluidics platform based assay relative to control
[24] = biological target: Serine/threonine-protein kinase 10 (Homo sapiens) (UniProt O94804); test: Inhibition of LOK (unknown origin) at 1 uM by mobility shift microfluidics platform based assay relative to control
[25] = biological target: Discoidin domain-containing receptor 2 (Homo sapiens) (UniProt Q16832); test: Inhibition of DDR2 (unknown origin) at 1 uM by mobility shift microfluidics platform based assay relative to control
[26] = biological target: Mitogen-activated protein kinase 13 (Homo sapiens) (UniProt O15264); test: Inhibition of P38-delta (unknown origin) at 1 uM by mobility shift microfluidics platform based assay relative to control
[27] = biological target: Muscle, skeletal receptor tyrosine-protein kinase (Homo sapiens) (UniProt O15146); test: Inhibition of MUSK (unknown origin) at 1 uM by mobility shift microfluidics platform based assay relative to control
Chain of Muscle, skeletal receptor tyrosine-protein kinase (Homo sapiens) (O15146 whole entry): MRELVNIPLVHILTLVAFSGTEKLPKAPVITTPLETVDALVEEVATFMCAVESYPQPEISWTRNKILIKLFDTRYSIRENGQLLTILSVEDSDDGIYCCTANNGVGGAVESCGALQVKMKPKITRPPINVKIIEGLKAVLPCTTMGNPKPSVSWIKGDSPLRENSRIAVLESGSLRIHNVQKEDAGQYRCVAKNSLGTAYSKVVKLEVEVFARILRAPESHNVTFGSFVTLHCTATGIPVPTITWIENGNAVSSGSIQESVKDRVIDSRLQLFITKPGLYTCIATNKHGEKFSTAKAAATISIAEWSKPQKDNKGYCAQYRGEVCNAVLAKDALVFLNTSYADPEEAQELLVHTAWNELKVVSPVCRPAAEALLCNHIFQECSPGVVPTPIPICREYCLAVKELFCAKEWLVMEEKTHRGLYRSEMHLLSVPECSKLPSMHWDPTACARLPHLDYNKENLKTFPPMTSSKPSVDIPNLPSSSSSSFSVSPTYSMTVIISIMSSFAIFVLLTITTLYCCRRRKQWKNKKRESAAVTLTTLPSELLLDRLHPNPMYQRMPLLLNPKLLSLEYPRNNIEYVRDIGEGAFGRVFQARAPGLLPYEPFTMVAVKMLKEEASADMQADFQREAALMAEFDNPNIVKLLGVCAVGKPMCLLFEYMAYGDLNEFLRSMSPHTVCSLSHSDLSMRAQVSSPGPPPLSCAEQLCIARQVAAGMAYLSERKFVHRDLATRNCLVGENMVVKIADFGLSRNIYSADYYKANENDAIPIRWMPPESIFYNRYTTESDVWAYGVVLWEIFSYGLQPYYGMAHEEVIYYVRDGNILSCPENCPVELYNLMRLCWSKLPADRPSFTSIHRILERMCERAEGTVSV

[28] = biological target: Insulin receptor-related protein (Homo sapiens) (UniProt P14616); test: Inhibition of IRR (unknown origin) at 1 uM by mobility shift microfluidics platform based assay relative to control
[29] = biological target: Leukocyte tyrosine kinase receptor (Homo sapiens) (UniProt P29376); test: Inhibition of LTK (unknown origin) at 1 uM by mobility shift microfluidics platform based assay relative to control
[30] = biological target: Receptor-type tyrosine-protein kinase FLT3 (Homo sapiens) (UniProt P36888); test: Inhibition of FLT3 (unknown origin) at 1 uM by mobility shift microfluidics platform based assay relative to control
[31] = biological target: Ephrin type-A receptor 2 (Homo sapiens) (UniProt P29317); test: Inhibition of EPH-A2 (unknown origin) at 1 uM by mobility shift microfluidics platform based assay relative to control
[32] = biological target: Ephrin type-B receptor 2 (Homo sapiens) (UniProt P29323); test: Inhibition of EPH-B2 (unknown origin) at 1 uM by mobility shift microfluidics platform based assay relative to control
[33] = biological target: Tyrosine-protein kinase Lyn (Homo sapiens) (UniProt P07948); test: Inhibition of LYNB (unknown origin) at 1 uM by mobility shift microfluidics platform based assay relative to control
[34] = biological target: Serine/threonine-protein kinase Nek6 (Homo sapiens) (UniProt Q9HC98); test: Inhibition of NEK6 (unknown origin) at 1 uM by mobility shift microfluidics platform based assay relative to control

Chain of TRAF2 and NCK-interacting protein kinase (Homo sapiens) (Q9UKE5 whole entry, looked up): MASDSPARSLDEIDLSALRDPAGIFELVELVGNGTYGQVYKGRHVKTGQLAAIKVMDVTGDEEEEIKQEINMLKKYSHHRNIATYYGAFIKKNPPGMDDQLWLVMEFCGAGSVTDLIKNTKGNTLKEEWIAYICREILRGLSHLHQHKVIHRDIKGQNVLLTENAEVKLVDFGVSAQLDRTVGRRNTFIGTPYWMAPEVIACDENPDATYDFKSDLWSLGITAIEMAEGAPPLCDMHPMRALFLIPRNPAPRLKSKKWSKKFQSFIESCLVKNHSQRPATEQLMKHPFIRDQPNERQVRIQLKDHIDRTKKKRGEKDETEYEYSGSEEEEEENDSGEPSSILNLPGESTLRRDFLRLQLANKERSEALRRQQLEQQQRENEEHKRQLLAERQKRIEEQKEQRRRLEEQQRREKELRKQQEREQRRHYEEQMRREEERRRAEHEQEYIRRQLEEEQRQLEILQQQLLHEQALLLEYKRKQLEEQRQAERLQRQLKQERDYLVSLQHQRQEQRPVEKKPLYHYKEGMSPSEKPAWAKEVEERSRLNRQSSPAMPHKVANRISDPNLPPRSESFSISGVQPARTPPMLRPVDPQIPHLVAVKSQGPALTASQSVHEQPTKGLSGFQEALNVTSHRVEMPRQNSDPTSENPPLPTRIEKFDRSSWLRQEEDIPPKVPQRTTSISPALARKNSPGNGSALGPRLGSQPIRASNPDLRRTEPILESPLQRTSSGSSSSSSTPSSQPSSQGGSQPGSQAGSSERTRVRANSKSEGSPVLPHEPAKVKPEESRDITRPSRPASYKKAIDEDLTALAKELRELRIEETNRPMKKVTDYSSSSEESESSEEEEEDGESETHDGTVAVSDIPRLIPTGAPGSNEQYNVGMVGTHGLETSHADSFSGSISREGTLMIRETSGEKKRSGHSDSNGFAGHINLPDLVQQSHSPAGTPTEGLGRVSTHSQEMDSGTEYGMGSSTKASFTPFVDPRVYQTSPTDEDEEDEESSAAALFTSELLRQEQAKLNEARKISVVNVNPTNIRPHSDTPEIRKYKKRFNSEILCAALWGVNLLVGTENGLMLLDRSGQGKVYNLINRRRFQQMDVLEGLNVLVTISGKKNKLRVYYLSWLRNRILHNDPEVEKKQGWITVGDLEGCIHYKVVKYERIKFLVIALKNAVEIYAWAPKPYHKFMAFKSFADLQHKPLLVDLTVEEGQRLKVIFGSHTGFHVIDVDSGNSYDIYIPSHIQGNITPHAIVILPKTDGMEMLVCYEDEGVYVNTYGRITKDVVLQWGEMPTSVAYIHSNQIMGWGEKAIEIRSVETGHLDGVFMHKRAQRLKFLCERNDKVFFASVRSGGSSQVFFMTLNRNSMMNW

Structure (SMILES)	inhibition [1]	inhibition [2]	inhibition [3]	inhibition [4]	inhibition [5]	inhibition [6]	inhibition [7]	inhibition [8]	inhibition [9]	inhibition [10]	inhibition [11]	inhibition [12]	inhibition [13]	inhibition [14]	inhibition [15]	inhibition [16]	inhibition [17]	inhibition [18]	IC50 [19]	inhibition [20]	other results
CC(C)n1nc(C#Cc2cccc3cc(-c4cccc(C(F)(F)F)c4)ncc23)c2c(N)ncnc21	4%	4%	2%	1%	1%	17%	31%	6%	0%	62%	2%	3%	98%	84%	1%	94%	0%	3%	0.065 µM	-4%	inhibition [21]: -5%; inhibition [22]: 2%; inhibition [23]: 2%; inhibition [24]: 59%; inhibition [25]: 96%; inhibition [26]: 2%; inhibition [27]: 3%; inhibition [28]: -3%; inhibition [29]: 8%; inhibition [30]: 7%; inhibition [31]: 90%; inhibition [32]: 97%; inhibition [33]: 94%; inhibition [34]: -5%
CC(C)n1nc(C#Cc2cccc(NC(=O)c3cccc(C(F)(F)F)c3)c2)c2c(N)ncnc21	18%	71%	8%	7%	2%	17%	93%	5%	1%	89%	-7%	-5%	100%	97%	-1%	100%	6%	2%	0.004 µM	2%	inhibition [21]: -1%; inhibition [22]: 2%; inhibition [23]: 1%; inhibition [24]: 97%; inhibition [25]: 93%; inhibition [26]: 0%; inhibition [27]: 8%; inhibition [28]: 2%; inhibition [29]: 4%; inhibition [30]: 29%; inhibition [31]: 100%; inhibition [32]: 99%; inhibition [33]: 100%; inhibition [34]: 0%
